In patent publication US8916599B2, “1H-benz imidazole-5-carboxamides as anti-inflammatory agents” (Orexo AB, priority 2008, dated 2014):

molecular target: T1, recombinant human mPGES-1 (Homo sapiens, UniProt O14684); experiment: mPGES-1 inhibition test (microsomes, PGH2 substrate, HTRF detection of PGE2); format: biochemical; details: inhibition of mPGES-1 at 1 μM (marked in cell)
T1 construct: made in house; host or cells: Rosetta E. coli (microsomal/membrane fraction)
T1 sequence (O14684 1-152): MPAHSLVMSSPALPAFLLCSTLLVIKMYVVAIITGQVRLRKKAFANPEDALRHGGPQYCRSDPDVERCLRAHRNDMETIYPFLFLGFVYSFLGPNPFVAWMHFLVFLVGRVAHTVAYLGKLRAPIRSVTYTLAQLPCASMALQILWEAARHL
Experimental: Microsomes from Rosetta E. coli bacteria expressing recombinant human mPGES-1 is dissolved in 0.1 M KPi pH 7.4 buffer containing 2.5 mM GSH. 50 μl of the enzyme is subsequently dispensed in a 384-well plate. 0.5 μl of the inhibitor dissolved in DMSO at is thereafter added to each well and incubated for 25 minutes at room temperature. Subsequently, 2 μl of PGH2 dissolved in an appropriate solvent is added to each well and after one minute the acidified stop solution containing FeCl2 is added. 4 μl of the total volume is transferred to a separate plate and diluted 750-fold in two separate steps before HTRF detection of PGE2.
The HTRf detection is performed by the use of a commercially available kit from CisBio essentially according to the manufacturer's protocol. Briefly, 10 μl of the diluted sample is transferred to a white 384-well plate. 5 μl of d2 and 5 μl Eu3+-Cryptate labeled anti-PGE2 is added to each well containing samples by the use of a Multidrop. The plate is covered with a plastic self-adhesive film, centrifuged at 1200 rpm for 1 minute and subsequently stored at +4° C. over night.
After over night incubation the fluorescence is measured by the use of an appropriate microplate reader. The fluorescence of europium cryptate, and d2 are measured using the following excitation and emission wavelength, europium cryptate: λmax^ex=307 nm, λmax^em=620 nm and d2: λmax^ex=620 nm, λmax^em=665 nm), respectively. The extent of the specific FRET is measured as a ratio of the emission intensity at 665 nm vs. that at 620 nm. A standard curve using synthetic PGE2 is used to quantify the amount of PGE2 in unknown samples.

Compound | inhibition at 1 µM
O=C(Nc1ccc(Cl)c(F)c1)c1ccc2[nH]c(Nc3c(Cl)cccc3Cl)nc2c1 [Example 67, 2-(2,6-Dichloro-phenylamino)-1H-benzimidazole-5-carboxylic acid (4-chloro-3-fluoro-phenyl)-amide] | 100%
O=C(Nc1ccc(Br)c(F)c1)c1ccc2[nH]c(Nc3c(Cl)cccc3Cl)nc2c1 [Example 68, 2-(2,6-Dichloro-phenylamino)-1H-benzimidazole-5-carboxylic acid (4-bromo-3-fluoro-phenyl)-amide] | 100%
O=C(Nc1cccc(Br)c1)c1ccc2[nH]c(Nc3c(Cl)cccc3Cl)nc2c1 [Example 69, 2-(2,6-Dichloro-phenylamino)-1H-benzimidazole-5-carboxylic acid (3-bromo-phenyl)-amide] | 100%
O=C(Nc1ccc(F)c(Br)c1)c1ccc2[nH]c(Nc3c(Cl)cccc3Cl)nc2c1 [Example 70, 2-(2,6-Dichloro-phenylamino)-1H-benzimidazole-5-carboxylic acid (3-bromo-4-fluoro-phenyl)-amide] | 100%
O=C(Nc1ccc(F)c(Cl)c1)c1ccc2[nH]c(Nc3c(Cl)cccc3Cl)nc2c1 [Example 71, 2-(2,6-Dichloro-phenylamino)-1H-benzimidazole-5-carboxylic acid (3-chloro-4-fluoro-phenyl)-amide] | 95%

same assay, conditions: inhibition of mPGES-1 at 10 μM

Compound | % inhib. | inhibition at 10 µM
2-(2-Chloro-6-fluorophenylamino-N-(4-isopropylcyclohexyl)-6-fluoro-1-methyl-1H-benzimidazole-5-carboxamide [Example 363] | 100% | –
O=C(Nc1ccccc1)c1ccc2[nH]c(Nc3c(Cl)cccc3Cl)nc2c1 [Example 1, 2-(2,6-Dichloro-phenylamino)-1H-benzimidazole-5-carboxylic acid phenylamide] | – | 100%
Cc1ccccc1NC(=O)c1ccc2[nH]c(Nc3c(Cl)cccc3Cl)nc2c1 [Example 3, 2-(2,6-Dichloro-phenylamino)-1H-benzimidazole-5-carboxylic acid o-tolylamide] | – | 95%
Cc1cccc(NC(=O)c2ccc3[nH]c(Nc4c(Cl)cccc4Cl)nc3c2)c1 [Example 4, 2-(2,6-Dichloro-phenylamino)-1H-benzimidazole-5-carboxylic acid m-tolylamide] | – | 100%
Cc1ccc(NC(=O)c2ccc3[nH]c(Nc4c(Cl)cccc4Cl)nc3c2)cc1 [Example 5, 2-(2,6-Dichloro-phenylamino)-1H-benzimidazole-5-carboxylic acid p-tolylamide] | – | 100%
O=C(Nc1ccccc1)c1ccc2[nH]c(Nc3ccccc3C(F)(F)F)nc2c1 [Example 6, 2-(2-Trifluoromethyl-phenylamino)-1H-benzimidazole-5-carboxylic acid-phenylamide] | – | 99%
O=C(Nc1ccccc1)c1ccc2[nH]c(Nc3cc(Cl)ccc3Cl)nc2c1 [Example 7, 2-(2,5-Dichloro-phenylamino)-1H-benzimidazole-5-carboxylic acid-phenylamide] | – | 100%
O=C(Nc1ccccc1)c1ccc2[nH]c(Nc3ccccc3Cl)nc2c1 [Example 9, 2-(2-Chloro-phenylamino)-1H-benzimidazole-5-carboxylic acid-phenylamide] | – | 93%
Cc1ccccc1Nc1nc2cc(C(=O)Nc3ccccc3)ccc2[nH]1 [Example 10, 2-(o-Tolyl-amino)-1H-benzimidazole-5-carboxylic acid-phenylamide] | – | 98%
Cc1cccc(Cl)c1Nc1nc2cc(C(=O)Nc3ccccc3)ccc2[nH]1 [Example 12, 2-(2-Chloro-6-methyl-phenylamino)-1H-benzimidazole-5-carboxylic acid-phenylamide] | – | 99%
Cc1cccc(C)c1Nc1nc2cc(C(=O)Nc3ccccc3)ccc2[nH]1 [Example 13, 2-(2,6-Dimethyl-phenylamino)-1H-benzimidazole-5-carboxylic acid-phenylamide] | – | 100%
O=C(Nc1ccccc1)c1ccc2[nH]c(Nc3c(F)cccc3Cl)nc2c1 [Example 19, 2-(2-Chloro-6-fluoro-phenylamino)-1H-benzimidazole-5-carboxylic acid-phenylamide] | – | 91%
Cn1c(Nc2c(Cl)cccc2Cl)nc2cc(C(=O)Nc3ccccc3)ccc21 [Example 20, 2-(2,6-Dichloro-phenylamino)-1-methyl-1H-benzimidazole-5-carboxylic acid phenylamide] | – | 97%
N#Cc1cccc(NC(=O)c2ccc3[nH]c(Nc4c(Cl)cccc4Cl)nc3c2)c1 [Example 22, 2-(2,6-Dichloro-phenylamino)-1H-benzimidazole-5-carboxylic acid (3-cyano-phenyl)-amide] | – | 100%
Cc1cc(C(=O)Nc2ccc(Br)cc2)cc2nc(Nc3c(Cl)cccc3Cl)[nH]c12 [Example 51, 2-(2,6-Dichloro-phenylamino)-7-methyl-1H-benzimidazole-5-carboxylic acid (4-bromo-phenyl)-amide] | – | 89%
Cc1cc(C(=O)Nc2ccc(Cl)c(F)c2)cc2nc(Nc3c(Cl)cccc3Cl)[nH]c12 [Example 52, 2-(2,6-Dichloro-phenylamino)-7-methyl-1H-benzimidazole-5-carboxylic acid (4-chloro-3-fluoro-phenyl)-amide] | – | 100%
O=C(Nc1ccc(Br)cc1)c1cc2nc(Nc3c(Cl)cccc3Cl)[nH]c2cc1Cl [Example 53, 2-(2,6-Dichloro-phenylamino)-6-chloro-1H-benzimidazole-5-carboxylic acid (4-bromo-phenyl)-amide] | – | 100%
O=C(Nc1ccc(Br)c(F)c1)c1cc2nc(Nc3c(Cl)cccc3Cl)[nH]c2cc1Cl [Example 54, 2-(2,6-Dichloro-phenylamino)-6-chloro-1H-benzimidazol-5-carboxylic acid (4-bromo-3-fluoro-phenyl)-amide] | – | 96%
O=C(Nc1ccc(Cl)c(F)c1)c1cc2nc(Nc3c(Cl)cccc3Cl)[nH]c2cc1Cl [Example 55, 2-(2,6-Dichloro-phenylamino)-6-chloro-1H-benzimidazol-5-carboxylic acid (4-chloro-3-fluoro-phenyl)-amide] | – | 93%
O=C(Nc1cccc(Cl)c1)c1cc2nc(Nc3c(Cl)cccc3Cl)[nH]c2cc1Cl [Example 56, 2-(2,6-Dichloro-phenylamino)-6-chloro-1H-benzimidazol-5-carboxylic acid (3-chloro-phenyl)-amide] | – | 100%
O=C(Nc1ccc(I)cc1)c1cc2nc(Nc3c(Cl)cccc3Cl)[nH]c2cc1Cl [Example 57, 2-(2,6-Dichloro-phenylamino)-6-chloro-1H-benzimidazol-5-carboxylic acid (4-iodo-phenyl)-amide] | – | 96%
O=C(NC1Cc2ccccc2C1)c1cc2nc(Nc3c(Cl)cccc3Cl)[nH]c2cc1Cl [Example 58, 2-(2,6-Dichloro-phenylamino)-6-chloro-1H-benzimidazol-5-carboxylic acid indan-2-yl-amide] | – | 90%
CC1(C)CCC(NC(=O)c2ccc3[nH]c(Nc4c(Cl)cccc4Cl)nc3c2)CC1 [Example 64, 2-(2,6-Dichloro-phenylamino)-1H-benzimidazole-5-carboxylic acid (4,4-dimethyl-cyclohexyl)-amide] | – | 97%
O=C(Nc1ccc(Br)cc1)c1ccc2[nH]c(Nc3c(Cl)cccc3Cl)nc2c1 [Example 66, 2-(2,6-Dichloro-phenylamino)-1H-benzimidazole-5-carboxylic acid (4-bromo-phenyl)-amide] | – | 100%
O=C(Nc1ccc(Cl)cn1)c1ccc2[nH]c(Nc3c(Cl)cccc3Cl)nc2c1 [Example 74, 2-(2,6-Dichloro-phenylamino)-1H-benzimidazole-5-carboxylic acid (5-chloro-pyridin-2-yl)-amide] | – | 97%
O=C(Nc1cc(Cl)ccn1)c1ccc2[nH]c(Nc3c(Cl)cccc3Cl)nc2c1 [Example 75, 2-(2,6-Dichloro-phenylamino)-1H-benzimidazole-5-carboxylic acid (4-chloro-pyridin-2-yl)-amide] | – | 95%
Cc1nc(NC(=O)c2ccc3[nH]c(Nc4c(Cl)cccc4Cl)nc3c2)ccc1Br [Example 76, 2-(2,6-Dichloro-phenylamino)-1H-benzimidazole-5-carboxylic acid (5-bromo-6-methyl-pyridin-2-yl)-amide] | – | 97%
Cc1nc(NC(=O)c2ccc3[nH]c(Nc4c(Cl)cccc4Cl)nc3c2)sc1C [Example 77, 2-(2,6-Dichloro-phenylamino)-1H-benzimidazole-5-carboxylic acid (4,5-dimethyl-thiazol-2-yl)-amide] | – | 96%
